Data on 1 molecule can be found in ChEMBL document CHEMBL1671753, “Therapeutic drug monitoring of linezolid: a retrospective monocentric analysis” (Antimicrob Agents Chemother, 2010).

The subject of one data set is Homo sapiens. The experiment in a line: Nonrenal clearance in healthy human at 600 mg, po. Conditions: in vivo. The class given is ADME, organism-based.
Data set [1] can be described thus: Cmax in patient plasma at 600 mg, iv or 600 mg, po administered every 12 hrs by HPLC. The data set is classed as ADME, organism-based. Particulars: human.
A short description of data set [2]: Drug excretion in healthy human urine assessed as unchanged compound at 600 mg, po. Conditions: read-out: Activity. The class given is ADME, tissue-based.
The nature of data set [3]: AUC (24 hrs) in patient plasma at 600 mg, iv or 600 mg, po administered every 12 hrs by HPLC. The data set is classed as ADME, organism-based. Conditions: human.
A short description of data set [4]: AUC (12 hrs) in liver transplant patient plasma at 600 mg, iv or 600 mg, po administered every 12 hrs by HPLC. The data set is classed as ADME, organism-based. Particulars: human.

As usually defined, the Cmax is the maximum level reached in the sampled fluid or tissue. In general, AUC refers to the area under the concentration-time curve, a measure of exposure. Read a high AUC as more exposure. On to `CC(=O)NC[C@H]1CN(c2ccc(N3CCOCC3)c(F)c2)C(=O)O1` [LINEZOLID], for which the “Dose non renally cleared” value in the data set with Homo sapiens was 65%. The molecule also showed a Cmax in data set [1] of 14700 ng/mL. Also, in data set [2], the dose excreted amounted to 30%. Also, the AUC in data set [3] is 196 µg·h/mL. The same molecule showed an AUC at 12 h in data set [4] of 413 µg·h/mL.
